What all share (assay): FRET from protein Trp to bound NADPH
Holding throughout (assay type): binding

Test [1] deals with T1, protochlorophyllide oxidoreductase (POR) (Thermosynechococcus vestitus, UniProt Q8DLC1, G19A).
T1 construct: recombinant, overexpressed in Escherichia coli, purified as in earlier work
An excerpt: (§1) FRET from protein Trp to bound NADPH on protochlorophyllide oxidoreductase (POR)

For test [2], the target named is T2, protochlorophyllide oxidoreductase (POR) (Thermosynechococcus vestitus, UniProt Q8DLC1, K42A).
T2 construct: recombinant, overexpressed in Escherichia coli, purified as in earlier work
T2 sequence (Q8DLC1 entry or part of it K42A): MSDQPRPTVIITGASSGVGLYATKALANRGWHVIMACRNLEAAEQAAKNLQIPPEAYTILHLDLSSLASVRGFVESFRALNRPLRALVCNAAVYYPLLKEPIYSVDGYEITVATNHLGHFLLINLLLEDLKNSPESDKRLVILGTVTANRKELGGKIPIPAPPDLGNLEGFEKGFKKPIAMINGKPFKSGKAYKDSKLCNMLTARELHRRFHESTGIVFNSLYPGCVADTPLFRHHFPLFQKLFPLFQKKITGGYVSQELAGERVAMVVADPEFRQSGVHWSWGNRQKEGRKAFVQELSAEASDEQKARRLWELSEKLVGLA
Text: as §1

Test [3] addresses T3, protochlorophyllide oxidoreductase (POR) (Thermosynechococcus vestitus, UniProt Q8DLC1, T230F).
T3 construct: recombinant, overexpressed in Escherichia coli, purified as in earlier work
Text: as §1

The target of test [4] is T4, protochlorophyllide oxidoreductase (POR) (Thermosynechococcus vestitus, UniProt Q8DLC1, S16C).
T4 construct: recombinant, overexpressed in Escherichia coli, purified as in earlier work
T4 sequence (Q8DLC1 entry or part of it S16C): as the sequence (Q8DLC1 entry or part of it K42A) above, with S16C, A42K counted along it
Text: as §1

Test [5] concerns the target T5, protochlorophyllide oxidoreductase (POR) (Thermosynechococcus vestitus, UniProt Q8DLC1).
T5 construct: recombinant, overexpressed in Escherichia coli, purified as in earlier work
Text: as §1

Test [6] has as its target T6, protochlorophyllide oxidoreductase (POR) (Thermosynechococcus vestitus, UniProt Q8DLC1, R38V).
T6 construct: recombinant, overexpressed in Escherichia coli, purified as in earlier work
Text: as §1

SMILES strings stand for the structures.

T5 sequence (Q8DLC1 1-322): as the sequence (Q8DLC1 entry or part of it K42A) above, with A42K counted along it
T1 sequence (Q8DLC1 entry or part of it G19A): as the sequence (Q8DLC1 entry or part of it K42A) above, with G19A, A42K counted along it
T3 sequence (Q8DLC1 entry or part of it T230F): as the sequence (Q8DLC1 entry or part of it K42A) above, with A42K, T230F counted along it
T6 sequence (Q8DLC1 entry or part of it R38V): as the sequence (Q8DLC1 entry or part of it K42A) above, with R38V, A42K counted along it

Consider `NC(=O)C1=CN([C@@H]2O[C@H](COP(=O)(O)OP(=O)(O)OC[C@H]3O[C@@H](n4cnc5c(N)ncnc54)[C@H](OP(=O)(O)O)[C@@H]3O)[C@@H](O)[C@H]2O)C=CC1` [NADPH], for which the equilibrium dissociation constant (Kd) (as a rule, the concentration at which binding is half-saturated) was found to be 182 ± 31 nM in test [1]; 230 ± 81 nM in test [2]; 436 ± 87 nM in test [3]; 325 ± 90 nM in test [4]; 21 ± 1 nM in test [5]; 411 ± 76 nM in test [6].

The values above are taken from paper PMC4970445, “Multiple active site residues are important for photochemical efficiency in the light-activated enzyme protochlorophyllide oxidoreductase (POR)^” (Journal of Photochemistry and Photobiology. B, Biology, 2016).
